Molecules are shown by their SMILES. Counter-ions that a name gives are not always drawn. Like-named read-outs stand apart in the source and are kept apart here.

Assay [1] relates to tetrabenazine (TBZ) induced ptosis. In words: Antagonism to the tetrabenazine (TBZ) induced ptosis. The format is in vivo, DS male mice. The settings on record: Mus musculus, sc, read-out: Anti-TBZ ptosis (ED50). As to the method:
(§1) Each compound was used in the form of 0.5 to 1% suspension made by mixing
(§2) with its half volume of arabic gum.
**Antagonism to the tetrabenazine (TBZ) induced ptosis: To several groups
of DS male mice in 4 to 5 weeks age, each group consisting of 5 mice was
subcutaneously administered the test compound. Half an hour later, 50
mg/kg of tetrabenazine was subcutaneously administered. Degree of the
ptosis in 1 hour was scored, and the result was subjected to the rigid
conversion. The ED50 value was obtained from the regression

Assay [2] has as its system pentylenetetrazole (PTZ) induced convulsion. Description: Antagonism to the pentylenetetrazole (PTZ) induced convulsion. The class given is in vivo, ddy male mice. The settings on record: Mus musculus, read-out: Anti-PTZ convulsion (ED50). As to the method: as §1, §2
***Antagonism to the pentylenetetrazole (PTZ) induced convulsion: To
several groups of ddy male mice in 4 to 5 weeks age, each group consistin
of 8 mice was orally administered the test compound. Half an hour later,
125 mg/kg of pentylenetetrazole was subcutaneously administered, and the
number of mice surviving during 2 hours was observed. The ED50 value
was obtained from the survival number according to the probit method.

[3] abbreviates: DS male mice, subcutaneous, half an hour before tetrabenazine 50 mg/kg s.c., ptosis scored in 1 hour.
[4] abbreviates: ddy male mice, oral, half an hour before pentylenetetrazole 125 mg/kg s.c., survival during 2 hours.

The ED50 is the dose at which the effect has come halfway, by size or by number of responders. `CN(C)CCCN1c2ccccc2CCc2ccccc21` [imipramine, reference compound]: the ED50 in assay [1] (1 h) is 0.799 mg/kg; in assay [2] (po, 2 h), over 10 mg/kg.

Turning to `CN1CCC(N2C(=O)CN=C(c3ccccc3)c3ccccc32)CC1` [Compound 6], the ED50 in assay [1] (1 h) was 0.26 mg/kg; in assay [2] (po, 2 h) it was over 20 mg/kg.

Take `Cc1ccc2c(c1)C(c1ccccc1F)=NCC(=O)N2C1CCN(C)CC1` [Compound 15]: the ED50 was 0.839 mg/kg in assay [1] (1 h) and over 10 mg/kg in assay [2] (po, 2 h).

For `O=C1CN=C(c2ccccc2F)c2cc(Cl)ccc2N1C1CCNCC1` [Compound 23, 7-chloro-1,3-dihydro-5-(2-fluorophenyl)-1-(4-piperidinyl)-2H-1,4-benzodiazepin-2-one], the figures for the ED50 in assay [1] (setting [3]) and in assay [2] (setting [4]) were 0.075 mg/kg and 8.52 mg/kg, respectively.

For `CN1CCC(N2C(=O)CN=C(c3ccccc3F)c3ccccc32)CC1` [Compound 8, 1-(1-methyl-4-piperidinyl)-1,3-dihydro-5-(2-fluorophenyl)-2H-1,4-benzdiazepin-2-one], the ED50 in assay [1] (1 h) was 0.205 mg/kg; in assay [2] (po, 2 h), over 10 mg/kg.

Take `CN1CCC(N2C(=O)CN=C(c3ccccc3F)c3cc(Cl)ccc32)CC1` [Compound 10]: the ED50 in assay [1] (1 h) was 1.3 mg/kg; in assay [2] (po, 2 h) it was 0.77 mg/kg.

Turning to `O=C1CN=C(c2ccccc2)c2ccccc2N1C1CCNCC1` [Compound 26, 1-(4-piperidinyl)-1,3-dihydro-5-phenyl-2H-1,4-benzodiazepin-1-one hydrobromide], the ED50 in assay [1] (setting [3]) was 0.063 mg/kg; in assay [2] (setting [4]), over 10 mg/kg.

The record behind these values is patent publication US4560684A, “1,4-Benzodiazepine derivatives” (priority 1982, dated 1985).
